Assay results reported in US11051515B2, “3-acyl-benzamides and their use as herbicides” (Bayer Aktiengesellschaft, priority 2017, dated 2021).

Legend:
ALOMY [1] = experiment: Pre-emergence action against ALOMY; format: in vivo, Alopecurus myosuroides; conditions: dosage 320 g/ha, pre-emergence, scored visually after 3 weeks vs untreated controls, 100% = plants have died, 0% = like control plants
Outline: (§1)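 Seeds sown in sandy loam in wood-fiber pots and covered with soil. Greenhouse growth; visual damage scored after 3 weeks versus untreated controls (100% = dead, 0% = like control).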

AVEFA [2] = experiment: Pre-emergence action against AVEFA; format: in vivo, Avena fatua; conditions: dosage 320 g/ha, scored visually after 3 weeks vs untreated controls
Outline: as §1

DIGSA [3] = experiment: Pre-emergence action against DIGSA; format: in vivo, Digitaria sanguinalis; conditions: dosage 320 g/ha, scored visually after 3 weeks vs untreated controls
Outline: as §1

ECHCG [4] = experiment: Pre-emergence action against ECHCG; format: in vivo, Echinochloa crus-galli; conditions: pre-emergence, dosage 320 g/ha, scored visually after 3 weeks vs untreated controls
Outline: as §1

LOLRI = experiment: Pre-emergence action against LOLRI; format: in vivo, Lolium rigidum; conditions: dosage 320 g/ha, scored visually after 3 weeks vs untreated controls
Outline: as §1

SETVI [5] = experiment: Pre-emergence action against SETVI; format: in vivo, Setaria viridis; conditions: pre-emergence, dosage 320 g/ha, scored visually after 3 weeks vs untreated controls
Outline: as §1

ABUTH [6] = experiment: Pre-emergence action against ABUTH; format: in vivo, Abutilon theophrasti; conditions: pre-emergence, dosage 320 g/ha, scored visually after 3 weeks vs untreated controls
Outline: as §1

AMARE [7] = experiment: Pre-emergence action against AMARE; format: in vivo, Amaranthus retroflexus; conditions: pre-emergence, dosage 320 g/ha, scored visually after 3 weeks vs untreated controls
Outline: as §1

MATIN [8] = experiment: Pre-emergence action against MATIN; format: in vivo, Matricaria inodora; conditions: Dosage 320 g/ha, pre-emergence
Outline: as §1

PHBPU [9] = experiment: Pre-emergence action against PHBPU; format: in vivo, Pharbitis purpurea; conditions: Dosage 320 g/ha, pre-emergence
Outline: as §1

STEME [10] = experiment: Pre-emergence action against STEME; format: in vivo, Stellaria media; conditions: Dosage 320 g/ha, pre-emergence
Outline: as §1

VIOTR [11] = experiment: Pre-emergence action against VIOTR; format: in vivo, Viola tricolor; conditions: Dosage 320 g/ha, pre-emergence
Outline: as §1

VERPE [12] = experiment: Pre-emergence action against VERPE; format: in vivo, Veronica persica; conditions: Dosage 320 g/ha, pre-emergence
Outline: as §1

HORMU = experiment: Pre-emergence action against HORMU; format: in vivo, Hordeum murinum; conditions: Dosage 320 g/ha
Outline: as §1

ALOMY [13] = experiment: Post-emergence action against ALOMY; format: in vivo, Alopecurus myosuroides; conditions: Dosage 80 g/ha, post-emergence
Outline: (§2)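 Weeds grown in sandy loam in greenhouse, treated at one-leaf stage (2–3 weeks after sowing) with WP or EC formulations sprayed as aqueous suspension/emulsion at 600 to […] water with 0.2% wetting agent. Visual rating after about 3 weeks versus untreated controls, as % herbicidal action (100% = plants dead, 0% = like control).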

AVEFA [14] = experiment: Post-emergence action against AVEFA; format: in vivo, Avena fatua; conditions: post-emergence, dosage 80 g/ha, visual assessment about 3 weeks after treatment vs untreated controls
Outline: as §2

DIGSA [15] = experiment: Post-emergence action against DIGSA; format: in vivo, Digitaria sanguinalis; conditions: dosage 80 g/ha, visual assessment about 3 weeks after treatment vs untreated controls
Outline: as §2

ECHCG [16] = experiment: Post-emergence action against ECHCG; format: in vivo, Echinochloa crus-galli; conditions: post-emergence, dosage 80 g/ha, visual assessment about 3 weeks after treatment vs untreated controls
Outline: as §2

SETVI [17] = experiment: Post-emergence action against SETVI; format: in vivo, Setaria viridis; conditions: post-emergence, dosage 80 g/ha, visual assessment about 3 weeks after treatment vs untreated controls
Outline: as §2

ABUTH [18] = experiment: Post-emergence action against ABUTH; format: in vivo, Abutilon theophrasti; conditions: post-emergence, dosage 80 g/ha, visual assessment about 3 weeks after treatment vs untreated controls
Outline: as §2

AMARE [19] = experiment: Post-emergence action against AMARE; format: in vivo, Amaranthus retroflexus; conditions: post-emergence, dosage 80 g/ha, visual assessment about 3 weeks after treatment vs untreated controls
Outline: as §2

MATIN [20] = experiment: Post-emergence action against MATIN; format: in vivo, Matricaria inodora; conditions: post-emergence, dosage 80 g/ha, visual assessment about 3 weeks after treatment vs untreated controls
Outline: as §2

PHBPU [21] = experiment: Post-emergence action against PHBPU; format: in vivo, Pharbitis purpurea; conditions: post-emergence, dosage 80 g/ha
Outline: as §2

POLCO = experiment: Post-emergence action against POLCO; format: in vivo, Polygonum convolvulus; conditions: post-emergence, dosage 80 g/ha
Outline: as §2

STEME [22] = experiment: Post-emergence action against STEME; format: in vivo, Stellaria media; conditions: post-emergence, dosage 80 g/ha
Outline: as §2

VIOTR [23] = experiment: Post-emergence action against VIOTR; format: in vivo, Viola tricolor; conditions: post-emergence, dosage 80 g/ha
Outline: as §2

VERPE [24] = experiment: Post-emergence action against VERPE; format: in vivo, Veronica persica; conditions: dosage 80 g/ha
Outline: as §2

CYPES [25] = experiment: Pre-emergence action against CYPES; format: in vivo, Cyperus esculentus; conditions: Cyperus esculentus, 504 h; pre-emergence, dosage 320 g/ha, scored visually after 3 weeks vs untreated controls; read-out: Pre-emergence action against CYPES (herbicidal activity)
Outline: as §1

CYPES [26] = experiment: Post-emergence action against CYPES; format: in vivo, Cyperus esculentus; conditions: Cyperus esculentus, 504 h; post-emergence, dosage 80 g/ha, visual assessment about 3 weeks after treatment vs untreated controls; read-out: Post-emergence action against CYPES (herbicidal action in percent)
Outline: as §2

LOLMU = experiment: Post-emergence action against LOLMU; format: in vivo, Lolium multiflorum; conditions: Lolium multiflorum, 504 h, dosage 80 g/ha, visual assessment about 3 weeks after treatment vs untreated controls, read-out: Post-emergence action against LOLMU (herbicidal action in percent)
Protocol: Seeds of monocotyledonous and dicotyledonous weed and crop plants are laid out in sandy loam soil in wood-fiber pots, covered with soil and cultivated in a greenhouse under good growth conditions. 2 to 3 weeks after sowing, the test plants are treated at the one-leaf stage. The compounds of the invention, formulated in the form of wettable powders (WP) or as emulsion concentrates (EC), are then sprayed onto the green parts of the plants in the form of an aqueous suspension or emulsion at a water application rate equating to […], with addition of 0.2% wetting agent. After the test plants have been left to stand in the greenhouse under optimal growth conditions for about 3 weeks, the action of the preparations is assessed visually in comparison to untreated controls (herbicidal action in percent (%): 100% activity=the plants have died, 0% activity=like control plants). […] At the same time, inventive compounds leave Gramineae crops such as barley, wheat, rye, millet/Sorghum, corn or rice virtually undamaged when applied post-emergence, even at high active ingredient dosages. In addition, some substances are also harmless to dicotyledonous crops such as soya, cotton, oilseed rape, sugar beet or potatoes. Some of the compounds according to the invention have high selectivity and are therefore suitable for controlling unwanted vegetation in agricultural crops by the post-emergence method. The data of Tables B18 to B34 below illustrate, in an exemplary manner, the […] herbicidal action of the compounds according to the invention, the herbicidal activity being stated in percent.

## CCCC(=O)c1c(C(F)(F)F)ccc(C(=O)Nc2nnnn2CC)c1C [2-16]
ALOMY [1]
  Pre-emergence action against ALOMY (herbicidal activity in percent): 90%
AVEFA [2]
  Pre-emergence action against AVEFA (herbicidal activity): 90%
DIGSA [3]
  Pre-emergence action against DIGSA (herbicidal activity): 100%
ECHCG [4]
  Pre-emergence action against ECHCG (herbicidal activity): 100%
LOLRI
  Pre-emergence action against LOLRI (herbicidal activity): 90%
SETVI [5]
  SETVI (Table B8, pre-emergence herbicidal activity): 90%
ABUTH [6]
  Pre-emergence action against ABUTH (herbicidal activity): 100%
AMARE [7]
  Pre-emergence action against AMARE (herbicidal activity): 100%
MATIN [8]
  Pre-emergence action against MATIN: 90%
PHBPU [9]
  Pre-emergence action against PHBPU: 90%
STEME [10]
  Pre-emergence action against STEME: 90%
VIOTR [11]
  Pre-emergence action against VIOTR: 90%
VERPE [12]
  Pre-emergence action against VERPE: 100%
HORMU
  Pre-emergence action against HORMU: 80%
ALOMY [13]
  Post-emergence action against ALOMY: 80%
AVEFA [14]
  Post-emergence action against AVEFA (herbicidal action in percent): 90%
DIGSA [15]
  Post-emergence action against DIGSA (herbicidal action in percent): 90%
ECHCG [16]
  Post-emergence action against ECHCG (herbicidal action in percent): 90%
SETVI [17]
  Post-emergence action against SETVI (herbicidal action in percent): 90%
ABUTH [18]
  Post-emergence action against ABUTH (herbicidal action in percent): 100%
AMARE [19]
  Post-emergence action against AMARE (herbicidal action in percent): 100%
MATIN [20]
  Post-emergence action against MATIN (herbicidal action in percent): 100%
PHBPU [21]
  Post-emergence action against PHBPU: 100
POLCO
  Post-emergence action against POLCO: 80
STEME [22]
  Post-emergence action against STEME: 100
VIOTR [23]
  Post-emergence action against VIOTR: 100
VERPE [24]
  Post-emergence action against VERPE: 80

## CCC(=O)c1c(C(F)(F)F)ccc(C(=O)Nc2nnnn2C)c1Cl [1-138]
ALOMY [1]; Alopecurus myosuroides, 504 h, read-out: Pre-emergence action against ALOMY (herbicidal activity in percent)
  pest or weed control at 320 g/ha: 100%
AVEFA [2]; Avena fatua, 504 h, read-out: Pre-emergence action against AVEFA (herbicidal activity)
  pest or weed control at 320 g/ha: 100%
CYPES [25]
  pest or weed control at 320 g/ha: 100%
ECHCG [4]; Echinochloa crus-galli, 504 h, read-out: Pre-emergence action against ECHCG (herbicidal activity)
  pest or weed control at 320 g/ha: 100%
SETVI [5]; Setaria viridis, 504 h, read-out: SETVI (Table B8, pre-emergence herbicidal activity)
  pest or weed control at 320 g/ha: 100%
ABUTH [6]; Abutilon theophrasti, 504 h, read-out: Pre-emergence action against ABUTH (herbicidal activity)
  pest or weed control at 320 g/ha: 100%
AMARE [7]; Amaranthus retroflexus, 504 h, read-out: Pre-emergence action against AMARE (herbicidal activity)
  pest or weed control at 320 g/ha: 100%
MATIN [8]; Tripleurospermum inodorum, 504 h
  pest or weed control at 320 g/ha: 100%
PHBPU [9]; Ipomoea purpurea, 504 h
  pest or weed control at 320 g/ha: 90%
VIOTR [11]; Viola tricolor, 504 h
  pest or weed control at 320 g/ha: 100%
VERPE [12]; Veronica persica, 504 h
  pest or weed control at 320 g/ha: 100%
ALOMY [13]; Alopecurus myosuroides, 504 h
  pest or weed control at 80 g/ha: 100%
AVEFA [14]; Avena fatua, 504 h, read-out: Post-emergence action against AVEFA (herbicidal action in percent)
  pest or weed control at 80 g/ha: 100%
CYPES [26]
  pest or weed control at 80 g/ha: 90%
ECHCG [16]; Echinochloa crus-galli, 504 h, read-out: Post-emergence action against ECHCG (herbicidal action in percent)
  pest or weed control at 80 g/ha: 90%
LOLMU
  pest or weed control at 80 g/ha: 100%
SETVI [17]; Setaria viridis, 504 h, read-out: Post-emergence action against SETVI (herbicidal action in percent)
  pest or weed control at 80 g/ha: 90%
ABUTH [18]; Abutilon theophrasti, 504 h, read-out: Post-emergence action against ABUTH (herbicidal action in percent)
  pest or weed control at 80 g/ha: 80%
AMARE [19]; Amaranthus retroflexus, 504 h, read-out: Post-emergence action against AMARE (herbicidal action in percent)
  pest or weed control at 80 g/ha: 80%
MATIN [20]; Tripleurospermum inodorum, 504 h, read-out: Post-emergence action against MATIN (herbicidal action in percent)
  pest or weed control at 80 g/ha: 100%
PHBPU [21]; Ipomoea purpurea, 504 h
  pest or weed control at 80 g/ha: 100%
POLCO; Fallopia convolvulus, 504 h
  pest or weed control at 80 g/ha: 80%
STEME [22]; Stellaria media, 504 h
  pest or weed control at 80 g/ha: 100%
VIOTR [23]; Viola tricolor, 504 h
  pest or weed control at 80 g/ha: 100%
VERPE [24]; Veronica persica, 504 h
  pest or weed control at 80 g/ha: 90%
